Molecules are shown by their SMILES. Read-outs that look alike come from different tables or passages of the source. Marks after values point to notes of the source that are not given here.

Holding throughout (format): binding
Assay [1] concerns the target T1, Human brain derived TDP-43 aggregates (Homo sapiens, UniProt Q13148).
T1 construct: A sample of brain tissue (frontal or temporal cortex) was homogenized; from tissue; host or cells: human FTD patient brain, frontal or temporal cortex, sarkosyl-insoluble fraction
Nature of the assay: Micro-radiobinding competition assay against [3H]-Compound 1. As to conditions: for Ki: 0.24 nM to 2 μM; for Ki / Human brain derived TDP-43 aggregates Mean % competition at 1 μM: [3H]-Compound 1 at 50 nM (40 nM for compound 15); for Human brain derived TDP-43 aggregates Mean % competition at 125 nM: compound at 125 nM, [3H]-Compound 1 at 50 nM; for Human brain derived TDP-43 aggregates Mean % competition at 1 μM: compound at 1 μM. Here is the method:
(§1) Human brain extracts were prepared as described in Laferriere et al., 2019, Nature Neurosc. A sample of brain tissue (frontal or temporal cortex) was homogenized at 1:4 (w/v) ratio in the homogenization-solubilization (HS) buffer at 4° C. using tissue homogenizer (Precellys) with CKmix homogenization tubes. The following sequence was used for homogenization: 3 cycles of 30 seconds at 5000 rpm (with 15 seconds pause between each cycle). Homogenized samples were aliquoted and stored at −80° C. in 1.5 mL low protein binding tubes.
(§2) Brain homogenates were thawed on ice and resuspended in HS buffer to obtain a final concentration of 2% sarkosyl, 1 unit/μL Benzonase and 1 mM MgCl2. The samples were then incubated at 37° C. under constant shaking at 600 rpm on a thermomixer for 45 minutes (min). The supernatants were collected in a new tube (sarkosyl-soluble fraction, S1). The pellet was resuspended in 1000 μL of myelin floatation buffer and centrifuged at 20,000 g for 60 min at 4° C. The supernatant was carefully removed to remove all the floating lipids. This step was repeated if all the lipids could not be removed in a single step. The pellet was subsequently washed with Phosphate-Buffered Saline (PBS) and centrifuged for 30 min at 20,000 g at 4° C. The final pellet was resuspended in 200 μL PBS and stored at −80° C. (sarkosyl-insoluble fraction). The samples were analyzed by immunoblotting in denaturing conditions.
(§3) Human FTD sarkosyl-insoluble brain extracts were spotted onto microarray slides. Three batches of extracts were used. The slides were incubated with a tritiated reference ligand at 25 nM or with tritiated Compound 1 ([^3H]-Compound 1) at 40 nM or 50 nM depending on the batch used. The example compounds (non-radiolabeled) were used at 1 μM and 125 nM (or 1 μM and 100 nM for compound 15). In some cases, the non-radiolabeled example compounds were further assessed for a range of different concentrations, varying from 0.24 nM to 2 μM for determination of the inhibition constant (Ki). After incubation, slides were washed and scanned by a real-time autoradiography system (BeaQuant, ai4R). Quantification of the signal was performed by using the Beamage image analysis software (ai4R). Non-specific signal was determined with an excess of non-radiolabeled reference compound (2 μM) and specific binding was calculated by subtracting the non-specific signal from the total signal. Competition was calculated as percent, where 0% was defined as the specific binding in the presence of vehicle and 100% as the values obtained in the presence of excess of the non-radiolabeled reference compound. Ki values were calculated in GraphPad Prism8 by applying a nonlinear regression curve fit using a one site, specific binding model. Measurements were performed with at least two technical replicates in the two-concentration competition experiment and with one technical replicate in the experiments including a range of concentrations. For compounds tested in more than one experiment, the mean of the replicates or K; values in independent experiments is reported.
Example compounds 11 to 15 were assessed for their potency to compete with the binding of [^3H]-Compound 1 on two different batches of brain extracts. Results of the micro-radiobinding competition assay for the example compounds are shown in Table 3 below as: % competition at 1 μM and 125 nM (with Compound 1 at 50 nM) for compounds 11 to 14, or % competition at 1 μM and 100 nM (with Compound 1 at 40 nM) for compound 15 respectively.

Assay [2] deals with T2, TDP-43 aggregates in human FTD sarkosyl-insoluble brain extracts (Homo sapiens, UniProt Q13148).
T2 construct: A sample of brain tissue (frontal or temporal cortex) was homogenized; from tissue; host or cells: human FTD patient brain, frontal or temporal cortex, sarkosyl-insoluble fraction
T2 sequence (Q13148 whole entry): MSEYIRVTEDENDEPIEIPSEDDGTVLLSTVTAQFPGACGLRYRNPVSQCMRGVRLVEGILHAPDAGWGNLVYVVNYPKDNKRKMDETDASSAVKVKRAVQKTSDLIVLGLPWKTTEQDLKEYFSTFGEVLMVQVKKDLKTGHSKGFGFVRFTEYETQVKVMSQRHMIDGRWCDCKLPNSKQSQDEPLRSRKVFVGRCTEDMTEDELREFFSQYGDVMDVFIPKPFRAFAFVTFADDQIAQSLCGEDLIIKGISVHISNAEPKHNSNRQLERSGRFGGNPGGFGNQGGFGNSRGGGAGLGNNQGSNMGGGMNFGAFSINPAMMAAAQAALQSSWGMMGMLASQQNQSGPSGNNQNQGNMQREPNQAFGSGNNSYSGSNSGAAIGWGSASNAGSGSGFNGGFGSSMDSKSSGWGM
Nature of the assay: Kd determination with micro-radiobinding (saturation) assay on human FTD sarkosyl insoluble brain extract. Here is the method:
as §1, §2
2.1 Kd Determination on Human FTD Sarkosyl Insoluble Brain Extract with Micro-Radiobinding Assay of [^3H]-Compound 1, 4, 8, 11, 12
Human FTD sarkosyl-insoluble brain extracts were spotted onto microarray slides. The slides were incubated with [^3H]-Compound 1, [^3H]-Compound 4, [^3H]-Compound 8, [^3H]-Compound 11, or [^3H]-Compound 12 respectively, in a range of concentrations, varying from 1.93 to 300 nM. After incubation, slides were washed and scanned by a real-time autoradiography system (BeaQuant, ai4R). Quantification of the signal was performed by using the Beamage image analysis software (ai4R). Non-specific signal was determined with an excess of non-radiolabelled compound 1, 4, 8, 11 or 12 (2 μM), respectively, and specific binding was calculated by subtracting the non-specific signal from the total signal.
The Kd (Dissociation constant) and R^2 (parameter ranging between 0.0 and 1.0 that quantifies the goodness of fit, and the best curve fit obtained with value of 1.0) were obtained by fitting the specific binding data with non-linear regression analysis, using a one-site specific binding model in GraphPad Prism8.

For assay [3], the target named is T3, FTD patient brain-derived TDP-43 aggregates (Homo sapiens, UniProt Q13148).
T3 construct: A sample of brain tissue (frontal or temporal cortex) was homogenized; from tissue; host or cells: human FTD patient brain, frontal or temporal cortex, sarkosyl-insoluble fraction
T3 sequence (Q13148 whole entry): as above
Nature of the assay: Micro-radiobinding competition assay against [3H]-reference ligand. The conditions noted are these: tritiated reference ligand at 25 nM; for Ki: 0.24 nM to 2 μM; for Human brain derived TDP-43 aggregates Mean % competition at 125 nM: compound at 125 nM; for Human brain derived TDP-43 aggregates Mean % competition at 1 μM: compound at 1 μM. Here is the method: as §1, §2, §3
Results: Example compounds 1 to 10 were assessed for their potency to compete with the binding of [^3H]-reference ligand to FTD patient brain-derived TDP-43 aggregates. Results of the micro-radiobinding competition assay for the example compounds are shown in Table 2 below as: % competition at 1 μM and 125 nM.

Where [4] appears, read: different batch of FTD sarkosyl-insoluble brain extracts, read-out: Kd (dissociation constant).
[5] abbreviates: tritiated compound 1.93 to 300 nM on human FTD sarkosyl-insoluble brain extracts, one-site specific binding fit, read-out: Kd (dissociation constant).

T1 sequence (Q13148 whole entry): as above

Regarding `O=C(Nc1cncc(F)c1)c1sc(-c2ccc(N3CC[C@@H](F)C3)nc2)nc1F` [Compound 12, (R)-4-fluoro-N-(5-fluoropyridin-3-yl)-2-(6-(3-fluoropyrrolidin-1-yl)pyridin-3-yl)thiazole-5-carboxamide], in assay [1], the Ki – broadly, the dissociation constant of the complex between target and ligand, obtained from inhibition or displacement – was found to be 213 nM; the “Human brain derived TDP-43 aggregates Mean % competition at 125 nM” value worked out at 43%; the “Human brain derived TDP-43 aggregates Mean % competition at 1 μM” value is on record as 50%.
In the case of `O=C(Nc1ccncc1)c1cnc(-c2cnc(N3CC[C@H](F)C3)nc2)s1` [[^3H]-Compound 8, tritiated (S)-2-(2-(3-fluoropyrrolidin-1-yl)pyrimidin-5-yl)-N-(pyridin-4-yl)thiazole-5-carboxamide], the equilibrium dissociation constant (Kd) (as a rule, the free concentration of one partner at which half of the binding sites on the other are occupied at equilibrium, for simple one-to-one binding) in assay [2] (setting [4]) is 75 nM.
For the compound `O=C(Nc1ccncc1)c1cnc(-c2cnc(N3CC[C@H](F)C3)nc2)s1` [Compound 8, (S)-2-(2-(3-fluoropyrrolidin-1-yl)pyrimidin-5-yl)-N-(pyridin-4-yl)thiazole-5-carboxamide], in assay [3], the Ki amounted to 75 nM, the “Human brain derived TDP-43 aggregates Mean % competition at 125 nM” value is given as 47% and the “Human brain derived TDP-43 aggregates Mean % competition at 1 μM” value was 78%.
For the compound `O=C(Nc1ccc(F)nc1)c1sc(-c2ccc(N3CC[C@@H](F)C3)nc2)nc1F` [Compound 13, (R)-4-fluoro-N-(6-fluoropyridin-3-yl)-2-(6-(3-fluoropyrrolidin-1-yl)pyridin-3-yl)thiazole-5-carboxamide], in assay [1], the Ki stood at 107 nM, the “Human brain derived TDP-43 aggregates Mean % competition at 125 nM” value worked out at 42% and the “Human brain derived TDP-43 aggregates Mean % competition at 1 μM” value is listed as 75%.
Regarding `O=C(Nc1ccc(F)nc1)c1cnc(-c2ccc(N3CC[C@@H](F)C3)cc2)s1` [Compound 10], in assay [3], the affinity corresponds to a Ki of 71 nM, the “Human brain derived TDP-43 aggregates Mean % competition at 125 nM” value is reported as 54% and the “Human brain derived TDP-43 aggregates Mean % competition at 1 μM” value is listed as 70%.
For `Nc1cc(NC(=O)c2cnc(-c3ccc(N4CC[C@H](F)C4)nc3)s2)ccc1F` [Compound 7] the same measures were 63 nM, 52% and 80%.
As to `O=C(Nc1ccc(F)nc1)c1cnc(-c2ccc(N3CC[C@@H](F)C3)nc2)s1` [[^3H]-Compound 1], the Kd worked out at 53 ± 10 nM in assay [2] (data from two independent experiments, human FTD sarkosyl-insoluble brain extracts, read-out: average Kd) and 52 nM in assay [2] (setting [5]). Also, the specific binding result in assay [2] (human FTD sarkosyl insoluble brain extracts, result in words) was “high specific binding”.
Turning to `O=C(Nc1cnsc1)c1cnc(-c2ccc(N3CC[C@@H](F)C3)nc2)s1` [[^3H]-Compound 4, tritiated (R)-2-(6-(3-fluoropyrrolidin-1-yl)pyridin-3-yl)-N-(isothiazol-4-yl)thiazole-5-carboxamide], the Kd in assay [2] (setting [4]) was determined as 51 nM.
For the compound `O=C(Nc1ccncc1)c1cnc(-c2cnc(N3CC[C@@H](F)C3)cn2)s1` [Compound 9], in assay [3], the Ki was 82 nM, the “Human brain derived TDP-43 aggregates Mean % competition at 125 nM” value came to 60% and the “Human brain derived TDP-43 aggregates Mean % competition at 1 μM” value came to 83%.
As for `O=C(Nc1cncc(F)c1)c1cnc(-c2ccc(N3CC[C@@H](F)C3)nc2)s1` [Compound 11, (R)—N-(5-fluoropyridin-3-yl)-2-(6-(3-fluoropyrrolidin-1-yl)pyridin-3-yl)thiazole-5-carboxamide], in assay [1], the affinity corresponds to a Ki of 50 nM, the “Human brain derived TDP-43 aggregates Mean % competition at 125 nM” value is 65% and the “Human brain derived TDP-43 aggregates Mean % competition at 1 μM” value worked out at 80%.
Take `O=C(Nc1cncc(F)c1)c1cnc(-c2ccc(N3CC[C@@H](F)C3)nc2)s1` [[^3H]-Compound 11, tritiated (R)—N-(5-fluoropyridin-3-yl)-2-(6-(3-fluoropyrrolidin-1-yl)pyridin-3-yl)thiazole-5-carboxamide]: in assay [2] (setting [5]), the Kd stood at 80 nM.
On to `O=C(Nc1cnsc1)c1sc(-c2ccc(N3CC[C@@H](F)C3)nc2)nc1F` [Compound 15], for which, in assay [1], the Ki amounted to 10 nM and the “Human brain derived TDP-43 aggregates Mean % competition at 1 μM” value is listed as 92%. The “Mean % competition at 100 nM” value in assay [1] (compound at 100 nM, [3H]-Compound 1 at 40 nM) was 47* %.
On to `O=C(Nc1cnc(F)nc1)c1cnc(-c2ccc(N3CC[C@@H](F)C3)nc2)s1` [Compound 6], for which, in assay [3], the Ki came out at 89 nM, the “Human brain derived TDP-43 aggregates Mean % competition at 125 nM” value amounted to 46% and the “Human brain derived TDP-43 aggregates Mean % competition at 1 μM” value turned out to be 83%.
As for `O=C(Nc1cnsc1)c1cnc(-c2ccc(N3CC[C@@H](F)C3)nc2)s1` [Compound 4, (R)-2-(6-(3-fluoropyrrolidin-1-yl)pyridin-3-yl)-N-(isothiazol-4-yl)thiazole-5-carboxamide], in assay [3], the Ki was 116 nM, the “Human brain derived TDP-43 aggregates Mean % competition at 125 nM” value is 60% and the “Human brain derived TDP-43 aggregates Mean % competition at 1 μM” value worked out at 94%.
Regarding `O=C(Nc1ccc(F)nc1)c1cnc(-c2ccc(N3CC[C@@H](F)C3)nc2)s1` [Compound 1, (R)—N-(6-fluoropyridin-3-yl)-2-(6-(3-fluoropyrrolidin-1-yl)pyridin-3-yl)thiazole-5-carboxamide], in assay [3], the affinity corresponds to a Ki of 105 nM, the “Human brain derived TDP-43 aggregates Mean % competition at 125 nM” value came to 63% and the “Human brain derived TDP-43 aggregates Mean % competition at 1 μM” value is recorded as 102%.
Take `O=C(Nc1cncc(F)c1)c1sc(-c2ccc(N3CC[C@@H](F)C3)nc2)nc1F` [[^3H]-Compound 12]: in assay [2] (setting [5]), the Kd amounted to 67 nM.
With `O=C(Nc1cncnc1)c1sc(-c2ccc(N3CC[C@@H](F)C3)nc2)nc1F` [Compound 14], in assay [1], the affinity, expressed as Ki, was 153 nM; the “Human brain derived TDP-43 aggregates Mean % competition at 125 nM” value was determined as 38%; the “Human brain derived TDP-43 aggregates Mean % competition at 1 μM” value was 77%.
In the case of `O=C(Nc1cnc(F)cn1)c1cnc(-c2ccc(N3CC[C@@H](F)C3)nc2)s1` [Compound 5], in assay [3], affinity was put at a Ki of 223 nM, the “Human brain derived TDP-43 aggregates Mean % competition at 125 nM” value was determined as 53% and the “Human brain derived TDP-43 aggregates Mean % competition at 1 μM” value amounted to 70%.

Values taken from US20260167636A1, “NOVEL COMPOUNDS FOR THE DIAGNOSIS OF TDP-43 PROTEINOPATHIES” (AC IMMUNE SA, priority 2022, published 2026).
